Measurements as given in the NIST ThermoML archive (doi:10.1016/j.jct.2014.05.013).
± gives the expanded uncertainty stated by the source.

What was measured:
[1] = 100 kPa, Liquid, Vibrating tube method
[2] = wn = mass fraction of the nth substance listed; conditions: 100 kPa, Liquid, Vibrating tube method
[3] = refractive index (Na D-line) (dimensionless); wn = mass fraction of the nth substance listed; conditions: 100 kPa, Liquid, Standard Abbe refractometry

Q: What does the source list for `CNC=O` [N-methylformamide]?
A: mass density ([1]; 288.15 K): 1007.94 ± 1 kg/m3; mass density ([1]; 298.15 K): 999.25 ± 1 kg/m3; mass density ([1]; 308.15 K): 990.63 ± 1 kg/m3

Q: Which mass density ([2]; 288.15 K, w1 = 0.2) does the source give for `CNC=O` [N-methylformamide] + O here?
A: The mass density was 1010.26 ± 1 kg/m3.

Q: What about the mass density ([2]; 288.15 K, w1 = 0.4) of the same compound?
A: Its mass density is 1019.56 ± 1 kg/m3.

Q: What about the mass density ([2]; 288.15 K, w1 = 0.6) of the same compound?
A: Its mass density is 1023.57 ± 1 kg/m3.

Q: What about the mass density ([2]; 288.15 K, w1 = 0.8) of the same compound?
A: Its mass density is 1019.32 ± 1 kg/m3.

Q: What about the mass density ([2]; 288.15 K, w1 = 1) of the same compound?
A: Its mass density is 1007.94 ± 1 kg/m3.

Q: And the mass density ([2]; 298.15 K, w1 = 0.2)?
A: Its mass density is 1006.21 ± 1 kg/m3.

Q: What about the mass density ([2]; 298.15 K, w1 = 0.4) of the same compound?
A: Its mass density is 1013.7 ± 1 kg/m3.

Q: What about the mass density ([2]; 298.15 K, w1 = 0.6) of the same compound?
A: The mass density was 1016.29 ± 1 kg/m3.

Q: What about the mass density ([2]; 298.15 K, w1 = 0.8) of the same compound?
A: Its mass density is 1011.11 ± 1 kg/m3.

Q: What about the mass density ([2]; 298.15 K, w1 = 1) of the same compound?
A: Its mass density is 999.25 ± 1 kg/m3.

Q: What about the mass density ([2]; 308.15 K, w1 = 0.2) of the same compound?
A: The mass density was 1001.56 ± 1 kg/m3.

Q: What about the mass density ([2]; 308.15 K, w1 = 0.4) of the same compound?
A: Its mass density is 1007.51 ± 1 kg/m3.

Q: What about the mass density ([2]; 308.15 K, w1 = 0.6) of the same compound?
A: The mass density was 1008.9 ± 1 kg/m3.

Q: And the mass density ([2]; 308.15 K, w1 = 0.8)?
A: Its mass density is 1003.04 ± 1 kg/m3.

Q: And the mass density ([2]; 308.15 K, w1 = 1)?
A: The mass density was 990.63 ± 1 kg/m3.

Q: With `[Cl-].[Cs+]` [cesium chloride] + CN(C)C=O as the compound, how does the mass density ([2]; 288.15 K, w1 = 0.0005) read?
A: The mass density was 961.27 ± 1 kg/m3.

Q: What about the mass density ([2]; 298.15 K, w1 = 0.0008) of the same compound?
A: The mass density was 944.51 ± 1 kg/m3.

Q: And the mass density ([2]; 308.15 K, w1 = 0.0016)?
A: Its mass density is 937.54 ± 1 kg/m3.

Q: What about the refractive index ([3]; 288.15 K, w1 = 0.0005) of the same compound?
A: Its refractive index is 1.43298 ± 0.00032.

Q: What about the refractive index ([3]; 298.15 K, w1 = 0.0008) of the same compound?
A: Its refractive index is 1.4292 ± 0.00032.

Q: And the refractive index ([3]; 308.15 K, w1 = 0.0016)?
A: Its refractive index is 1.42658 ± 0.00032.

Q: For `[Cl-].[Cs+]` [cesium chloride] + CNC=O, which mass density ([2]; 288.15 K, w1 = 0.0585) is on record?
A: Its mass density is 1054.35 ± 1.2 kg/m3.

Q: What about the mass density ([2]; 298.15 K, w1 = 0.0599) of the same compound?
A: Its mass density is 1046.14 ± 1.2 kg/m3.

Q: And the mass density ([2]; 308.15 K, w1 = 0.062)?
A: Its mass density is 1038.58 ± 1.2 kg/m3.

Q: What about the refractive index ([3]; 288.15 K, w1 = 0.0585) of the same compound?
A: The refractive index was 1.43767 ± 0.00032.

Q: And the refractive index ([3]; 298.15 K, w1 = 0.0599)?
A: The refractive index was 1.43465 ± 0.00032.

Q: And the refractive index ([3]; 308.15 K, w1 = 0.062)?
A: Its refractive index is 1.43161 ± 0.00032.

Q: With `[Cl-].[Cs+]` [cesium chloride] + NC=O as the compound, how does the mass density ([2]; 288.15 K, w1 = 0.2292) read?
A: Its mass density is 1359.39 ± 1.3 kg/m3.

Q: What about the mass density ([2]; 298.15 K, w1 = 0.2331) of the same compound?
A: The mass density was 1354.37 ± 1.3 kg/m3.

Q: And the mass density ([2]; 308.15 K, w1 = 0.2412)?
A: Its mass density is 1354.14 ± 1.3 kg/m3.

Q: What about the refractive index ([3]; 288.15 K, w1 = 0.2292) of the same compound?
A: Its refractive index is 1.46286 ± 0.00032.

Q: And the refractive index ([3]; 298.15 K, w1 = 0.2331)?
A: Its refractive index is 1.46096 ± 0.00032.

Q: And the refractive index ([3]; 308.15 K, w1 = 0.2412)?
A: Its refractive index is 1.45811 ± 0.00032.

Q: Which results are given for `[Cl-].[Cs+]` [cesium chloride] + O?
A: mass density ([2]; 288.15 K, w1 = 0.646): 1894.15 ± 1.5 kg/m3; mass density ([2]; 298.15 K, w1 = 0.6545): 1921.87 ± 1.5 kg/m3; mass density ([2]; 308.15 K, w1 = 0.6666): 1947.03 ± 1.6 kg/m3; refractive index ([3]; 288.15 K, w1 = 0.646): 1.41803 ± 0.00032; refractive index ([3]; 298.15 K, w1 = 0.6545): 1.41971 ± 0.00032; refractive index ([3]; 308.15 K, w1 = 0.6666): 1.42086 ± 0.00032

Q: What does the source list for `CN(C)C=O` [dimethylformamide]?
A: mass density ([1]; 288.15 K): 953.53 ± 1 kg/m3; mass density ([1]; 298.15 K): 943.89 ± 1 kg/m3; mass density ([1]; 308.15 K): 934.39 ± 1 kg/m3

Q: Which mass density ([2]; 288.15 K, w1 = 0.2) does the source give for `CN(C)C=O` [dimethylformamide] + O here?
A: The mass density was 1000.62 ± 1 kg/m3.

Q: And the mass density ([2]; 288.15 K, w1 = 0.4)?
A: The mass density was 1003.56 ± 1 kg/m3.

Q: What about the mass density ([2]; 288.15 K, w1 = 0.6) of the same compound?
A: The mass density was 1001.34 ± 1 kg/m3.

Q: And the mass density ([2]; 288.15 K, w1 = 0.8)?
A: The mass density was 986.63 ± 1 kg/m3.

Q: And the mass density ([2]; 288.15 K, w1 = 1)?
A: The mass density was 953.53 ± 1 kg/m3.

Q: And the mass density ([2]; 298.15 K, w1 = 0.2)?
A: The mass density was 996.32 ± 1 kg/m3.

Q: What about the mass density ([2]; 298.15 K, w1 = 0.4) of the same compound?
A: The mass density was 996.99 ± 1 kg/m3.

Q: And the mass density ([2]; 298.15 K, w1 = 0.6)?
A: Its mass density is 992.97 ± 1 kg/m3.

Q: What about the mass density ([2]; 298.15 K, w1 = 0.8) of the same compound?
A: The mass density was 977.38 ± 1 kg/m3.

Q: And the mass density ([2]; 298.15 K, w1 = 1)?
A: Its mass density is 943.89 ± 1 kg/m3.

Q: And the mass density ([2]; 308.15 K, w1 = 0.2)?
A: The mass density was 991.45 ± 1 kg/m3.

Q: What about the mass density ([2]; 308.15 K, w1 = 0.4) of the same compound?
A: Its mass density is 990 ± 1 kg/m3.

Q: And the mass density ([2]; 308.15 K, w1 = 0.6)?
A: Its mass density is 984.33 ± 1 kg/m3.

Q: What about the mass density ([2]; 308.15 K, w1 = 0.8) of the same compound?
A: The mass density was 968.07 ± 1 kg/m3.

Q: And the mass density ([2]; 308.15 K, w1 = 1)?
A: The mass density was 934.39 ± 1 kg/m3.

Q: With `NC=O` [formamide] as the compound, how does the mass density ([1]; 288.15 K) read?
A: The mass density was 1137.8 ± 1 kg/m3.

Q: What about the mass density ([1]; 298.15 K) of the same compound?
A: The mass density was 1129.18 ± 1 kg/m3.

Q: What about the mass density ([1]; 308.15 K) of the same compound?
A: Its mass density is 1120.75 ± 1 kg/m3.

Q: Which mass density ([2]; 288.15 K, w1 = 0.2) does the source give for `NC=O` [formamide] + O here?
A: The mass density was 1030.04 ± 1 kg/m3.

Q: And the mass density ([2]; 288.15 K, w1 = 0.4)?
A: Its mass density is 1058.41 ± 1 kg/m3.

Q: And the mass density ([2]; 288.15 K, w1 = 0.6)?
A: The mass density was 1085.67 ± 1 kg/m3.

Q: And the mass density ([2]; 288.15 K, w1 = 0.8)?
A: Its mass density is 1111.83 ± 1 kg/m3.

Q: And the mass density ([2]; 288.15 K, w1 = 1)?
A: Its mass density is 1137.8 ± 1 kg/m3.

Q: And the mass density ([2]; 298.15 K, w1 = 0.2)?
A: The mass density was 1025.59 ± 1 kg/m3.

Q: What about the mass density ([2]; 298.15 K, w1 = 0.4) of the same compound?
A: Its mass density is 1052.51 ± 1 kg/m3.

Q: And the mass density ([2]; 298.15 K, w1 = 0.6)?
A: Its mass density is 1078.6 ± 1 kg/m3.

Q: What about the mass density ([2]; 298.15 K, w1 = 0.8) of the same compound?
A: The mass density was 1103.81 ± 1 kg/m3.

Q: What about the mass density ([2]; 298.15 K, w1 = 1) of the same compound?
A: The mass density was 1129.18 ± 1 kg/m3.

Q: And the mass density ([2]; 308.15 K, w1 = 0.2)?
A: The mass density was 1020.7 ± 1 kg/m3.

Q: And the mass density ([2]; 308.15 K, w1 = 0.4)?
A: Its mass density is 1046.35 ± 1 kg/m3.

Q: What about the mass density ([2]; 308.15 K, w1 = 0.6) of the same compound?
A: The mass density was 1071.43 ± 1 kg/m3.

Q: And the mass density ([2]; 308.15 K, w1 = 0.8)?
A: The mass density was 1095.93 ± 1 kg/m3.

Q: What about the mass density ([2]; 308.15 K, w1 = 1) of the same compound?
A: The mass density was 1120.75 ± 1 kg/m3.

Q: Which mass density ([1]; 288.15 K) does the source give for `O` [water] here?
A: The mass density was 999 ± 1 kg/m3.

Q: Which mass density ([2]; 288.15 K, w2 = 0) does the source give for `O` [water] + CN(C)C=O here?
A: The mass density was 999 ± 1 kg/m3.

Q: Which mass density ([2]; 288.15 K, w2 = 0) does the source give for `O` [water] + CNC=O here?
A: Its mass density is 999 ± 1 kg/m3.

Q: Which mass density ([2]; 288.15 K, w2 = 0) does the source give for `O` [water] + NC=O here?
A: The mass density was 999 ± 1 kg/m3.
